The results in this text go back to US12534450B2, “Methods and compositions for targeting PD-L1” (Aligos Therapeutics, Inc., priority 2021, dated 2026).

Bounds are passed on as bounds.

For one experiment, the target named is PD-1/PD-L1 PPI (Homo sapiens, UniProt Q9NZQ7). Briefly: PDL1/PD1 Binding Assay. The settings on record: PDL1-6×His 0.3 nM, PD1-Fc-Avi-Biotin 2.5 nM, Acceptor/Donor beads, Envision reader. The method, then: Compounds to be tested were serially diluted in DMSO, and further diluted in assay buffer (25 mM Hepes pH 7.4, 150 mM NaCl, 0.005% Tween 20, BSA 0.01%). Diluted compounds were added to the wells with final concentration of DMSO at 1%. PDL1-6×His protein was added to the wells, mixed well with compound. The plates were incubated for 30 min at room temperature. PD1-Fc-Avi-Biotin protein was added to the wells. Final concentration of PDL1 and PD1 protein is 0.3 nM and 2.5 nM, respectively. After a binding time of 30 min at room temperature, Anti-6×His Acceptor beads (final concentration 20 ug/ml) were added to the wells, and the incubation continued for 1 h. Streptavidin Donor beads (final concentration 20 ug/mL) were added at reduced light. The plates were sealed with foil and incubated in the dark for additional 1 h or overnight before reading on an Envision reader. The IC50 values were determined by fitting the curves using a four-parameter equation in Graphpad Prism 8.
PD-1/PD-L1 PPI, sequence (Q9NZQ7 19-238 limits assumed): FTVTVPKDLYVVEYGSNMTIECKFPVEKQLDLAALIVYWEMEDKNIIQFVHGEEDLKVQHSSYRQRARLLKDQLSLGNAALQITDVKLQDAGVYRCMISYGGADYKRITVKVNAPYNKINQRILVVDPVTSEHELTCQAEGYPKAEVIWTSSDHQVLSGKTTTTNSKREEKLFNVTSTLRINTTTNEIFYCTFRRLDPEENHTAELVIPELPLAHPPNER
On to `COc1nc(-c2cccc(-c3cccc(NC(=O)c4cn(C)c(=O)n(C)c4=O)c3Cl)c2Cl)cc2c1[C@H](N1CC3(COCC(=O)N3)C1)CC2` (single isomer, unassigned) [Compound A-134], for which the IC50 (commonly the concentration needed to halve the response being measured) was at most 10 nM.
In the case of `COc1nc(-c2cccc(-c3cccc(NC(=O)c4cn(C)c(=O)n(C)c4=O)c3C)c2Cl)cc2c1[C@H](NC[C@H]1CCC(=O)N1)CC2` (single isomer, unassigned) [Compound A-114], the IC50 was at most 10 nM.
As to `COc1nc(-c2cccc(-c3cccc(NC(=O)c4cn(C)c(=O)n(C)c4=O)c3C)c2C)cc2c1[C@H](N[C@@H]1CCOC[C@@H]1O)CC2` (single isomer, unassigned) [Compound A-34], the IC50 is at most 10 nM.
In the case of `COc1nc(-c2cccc(-c3cccc(NC(=O)c4cn(C)c(=O)n(C)c4=O)c3C)c2Cl)cc2c1C(NC[C@@H]1CCC(=O)N1)CC2C` (stereo partly shown) [Compound A-122], the half-inhibitory concentration (IC50) was at most 10 nM.
Take `COc1nc(-c2cccc(-c3cccc(NC(=O)c4nn(C)c(=O)n(C)c4=O)c3Cl)c2Cl)cc2c1[C@H](N[C@@H]1COC[C@H]1O)CC2` (single isomer, unassigned) [Compound A-100]: the IC50 was at most 10 nM.
Regarding `COc1nc(-c2cccc(-c3cccc(NC(=O)c4cn(C)c(=O)n(C)c4=O)c3C)c2F)cc2c1[C@H](N[C@@H]1CCOC[C@@H]1O)CC2` (single isomer, unassigned) [Compound A-35], the IC50 is at most 10 nM.
Take `COc1nc(-c2cccc(-c3cccc(NC(=O)c4cn(C)c(=O)n(C)c4=O)c3F)c2C)cc2c1[C@H](N[C@@H]1CCOC[C@@H]1O)CC2` (single isomer, unassigned) [Compound A-37]: the IC50 was at most 10 nM.
On to `COc1nc(-c2cccc(-c3cccc(NC(=O)c4cn(C)c(=O)n(C)c4=O)c3Cl)c2F)cc2c1[C@H](NC[C@@H]1CCC(=O)N1)CC2` [Compound A-15], for which the IC50 is at most 10 nM.
`COc1nc(-c2cccc(-c3cccc(NC(=O)c4cn(C)c(=O)n(C)c4=O)c3F)c2Cl)cc2c1[C@H](NC[C@@H]1CCC(=O)N1)CC2` [Compound A-11] displayed an IC50 of at most 10 nM.
`CCOC(=O)N(C[C@@H]1CCC(=O)N1)[C@H]1CCc2cc(-c3cccc(-c4cccc(NC(=O)c5cn(C)c(=O)n(C)c5=O)c4C)c3Cl)nc(OC)c21` [Compound E-1] came in with an IC50 of at most 10 nM.
On the same count and under the same terms, the same measure for `COc1nc(-c2cccc(-c3cccc(NC(=O)c4cn(C)c(=O)n(C)c4=O)c3C)c2Cl)cc2c1[C@@H](N(C[C@@H]1CCC(=O)N1)C(=O)OCc1oc(=O)oc1C)CC2` [Compound F-1]: at most 10 nM; for `COc1nc(-c2cccc(-c3cccc(NC(=O)c4cn(C)c(=O)n(C)c4=O)c3Cl)c2F)cc2c1[C@H](N[C@@H]1CCOC[C@@H]1O)CC2` (single isomer, unassigned) [Compound A-32]: at most 10 nM.
`COc1nc(-c2cccc(-c3cccc(NC(=O)c4cn(C)c(=O)n(C)c4=O)c3C)c2Cl)cc2c1[C@H](NC[C@@H]1CCC(=O)N1)CC2` [Compound A-10] came in with an IC50 of at most 10 nM.
`COc1nc(-c2cccc(-c3cccc(NC(=O)c4cn(C)c(=O)n(C)c4=O)c3F)c2F)cc2c1[C@H](N[C@@H]1CCOC[C@@H]1O)CC2` (single isomer, unassigned) [Compound A-38]: the IC50 was at most 10 nM.
Same read-out and setting: the same measure for `COc1nc(-c2cccc(-c3cccc(NC(=O)c4cn(C)c(=O)n(C)c4=O)c3Cl)c2Cl)cc2c1[C@@H](N1CC(OC)C1)CC2` (single isomer, unassigned) [Compound A-24]: at most 10 nM.
For the compound `COc1nc(-c2cccc(-c3cccc(NC(=O)c4cn(C)c(=O)n(C)c4=O)c3F)c2C)cc2c1[C@H](NC[C@@H]1CCC(=O)N1)CC2` [Compound A-14], the IC50 is at most 10 nM.
The compound `COc1nc(-c2cccc(-c3cccc(NC(=O)c4cn(C)c(=O)n(C)c4=O)c3Cl)c2C)cc2c1[C@H](NC[C@@H]1CCC(=O)N1)CC2` [Compound A-12] came in with an IC50 of at most 10 nM.
Still for that read-out and setting: the same measure for `COc1nc(-c2cccc(-c3cccc(NC(=O)c4cn(C)c(=O)n(C)c4=O)c3Cl)c2Cl)cc2c1[C@@H](N1CC(O)C1)CC2` (single isomer, unassigned) [Compound A-26]: at most 10 nM.
Same read-out and setting: the same measure for `COc1nc(-c2cccc(-c3cccc(NC(=O)c4cn(C)c(=O)n(C)c4=O)c3F)c2Cl)cc2c1[C@H](N[C@@H]1CCOC[C@@H]1O)CC2` (single isomer, unassigned) [Compound A-36]: at most 10 nM; for `COc1nc(-c2cccc(-c3cccc(NC(=O)c4cn(C)c(=O)n(C)c4=O)c3C)c2C)cc2c1[C@H](NC[C@@H]1CCC(=O)N1)CC2` [Compound A-13]: at most 10 nM.
In turn, `COc1nc(-c2cccc(-c3cccc(NC(=O)c4cn(C)c(=O)n(C)c4=O)c3C)c2F)cc2c1[C@H](NC[C@@H]1CCC(=O)N1)CC2` [Compound A-16] showed an IC50 of at most 10 nM.

For a further experiment, the system named is PD-1/PD-L1 interaction. Briefly: PD-1/PD-L1 NFAT Reporter Assay (co-culture of Jurkat T cells overexpressing PD-1 and PD-L1 expressing CHO cells). Type of experiment: cell-based. To be noted: Homo sapiens, Jurkat, 6 h, co-culture 6 hrs at 37° C., NFAT-mediated luciferase activity. The method, then:
Blocking the PD-1/PD-L1 interaction will release the inhibitory signal and results in TCR signaling and NFAT-mediated luciferase activity.
CHO cells expressing surface-bound anti-CD3 antibodies and PD-L1 were first seeded overnight and treated with the compounds. Jurkat cells overexpressing PD-1 and a luciferase construct under NFAT promoter were then immediately seeded on the monolayer of CHO cells. The co-culture was then incubated for 6 hrs at 37° C. Luciferase activity was assessed by adding the ONE-Glo reagent and measuring luminescence with a plate reader. EC50 values were determined from the fit of the dose-response curves.
A general note: A reporter such as luciferase makes a cellular process visible.
Regarding `COc1nc(-c2cccc(-c3cccc(NC(=O)c4cn(C)c(=O)n(C)c4=O)c3Cl)c2Cl)cc2c1[C@H](N1CC3(COCC(=O)N3)C1)CC2` (single isomer, unassigned) [Compound A-134], the EC50 (usually the midpoint of the concentration-response curve) is at most 10 nM.
The compound `COc1nc(-c2cccc(-c3cccc(NC(=O)c4cn(C)c(=O)n(C)c4=O)c3C)c2Cl)cc2c1[C@H](NC[C@H]1CCC(=O)N1)CC2` (single isomer, unassigned) [Compound A-114] gave an EC50 of at most 10 nM.
Consider `COc1nc(-c2cccc(-c3cccc(NC(=O)c4cn(C)c(=O)n(C)c4=O)c3C)c2Cl)cc2c1C(NC[C@@H]1CCC(=O)N1)CC2C` (stereo partly shown) [Compound A-122], for which the EC50 fell in the range of 100 to 1000 nM.
`COc1nc(-c2cccc(-c3cccc(NC(=O)c4nn(C)c(=O)n(C)c4=O)c3Cl)c2Cl)cc2c1[C@H](N[C@@H]1COC[C@H]1O)CC2` (single isomer, unassigned) [Compound A-100] returned an EC50 of at most 10 nM.
On to `COc1nc(-c2cccc(-c3cccc(NC(=O)c4cn(C)c(=O)n(C)c4=O)c3C)c2Cl)cc2c1C(NCC(=O)N1CCCC1)CC2` [Compound D-13], for which the EC50 lay in the range of 10 to 100 nM.
With `COc1nc(-c2cccc(-c3cccc(NC(=O)c4cn(C)c(=O)n(C)c4=O)c3F)c2F)cc2c1[C@@H](NC[C@@H]1CCC(=O)N1)CC2` [Compound A-9], the EC50 was in the range of 10 to 100 nM.
The compound `COc1nc(-c2ccc(F)c(-c3cccc(NC(=O)c4cn(C)c(=O)n(C)c4=O)c3C)c2F)cc2c1[C@H](N1CC(O)C1)CC2` [Compound A-81] had an EC50 of 10 to 100 nM.
Compound `COc1nc(-c2cccc(-c3cccc(NC(=O)c4cn(C)c(=O)n(C)c4=O)c3Cl)c2Cl)cc2c1C(N[C@H]1CCOC[C@@H]1O)CC2` (stereo partly drawn) [Compound D-8a] returned an EC50 of 10 to 100 nM.
As for `COc1nc(-c2cccc(-c3cccc(NC(=O)c4nn(C)c(=O)n(C)c4=O)c3C)c2Cl)cc2c1[C@@H](N[C@@H]1CCOC[C@@H]1O)CC2` (single isomer, unassigned) [Compound A-77], the EC50 was at most 10 nM.
With `COc1nc(-c2cccc(-c3cccc(NC(=O)c4cn(C)c(=O)n(C)c4=O)c3C)c2Cl)cc2c1[C@H](NC[C@@H]1CCC(=O)N1)C(C)(C)C2` (single isomer, unassigned) [Compound A-124], the EC50 lay within 1000 to 10000 nM.
`COc1nc(-c2cccc(-c3cccc(NC(=O)c4cn(C)c(=O)n(C)c4=O)c3C)c2Cl)cc2c1[C@@H](N(C)C[C@@H]1CCC(=O)N1)CC2` [Compound I-1]: the EC50 was at most 10 nM.
The compound `COc1nc(-c2cccc(-c3cccc(NC(=O)c4cn(C)c(=O)n(C)c4=O)c3C)c2Cl)cc2c1C(NCC(=O)O)CC2` [Compound D-12] registered an EC50 of 10 to 100 nM.
Same read-out and setting: the same measure for `COc1cc(-c2cccc(-c3cccc(NC(=O)c4cn(C)c(=O)n(C)c4=O)c3Cl)c2Cl)cc2c1CC(NC[C@@H]1CCC(=O)N1)C2` (stereo partly shown) [Compound A-48]: 100 to 1000 nM.
Same read-out and setting: the same measure for `COc1nc(-c2cccc(-c3cccc(NC(=O)c4cn(C)c(=O)n(C)c4=O)c3C)c2Cl)cc2c1[C@@H](N1CC3(CCC(=O)N3)C1)CC2` (single isomer, unassigned) [Compound A-139]: at most 10 nM.
`COc1nc(-c2cccc(-c3cccc(NC(=O)c4nn(C)c(=O)n(C)c4=O)c3Cl)c2Cl)cc2c1[C@@H](N[C@@H]1CCOC[C@@H]1O)CC2` (single isomer, unassigned) [Compound A-76] came in with an EC50 of at most 10 nM.
In turn, `COc1nc(-c2cccc(-c3cccc(NC(=O)c4cn(C)c(=O)n(C)c4=O)c3Cl)c2C#N)cc2c1[C@@H](N[C@@H]1CCOC[C@@H]1O)CC2` (single isomer, unassigned) [Compound A-73] showed an EC50 of 10 to 100 nM.
Consider `COc1nc(-c2cccc(-c3cccc(NC(=O)c4cn(C)c(=O)n(C)c4=O)c3C)c2Cl)cc2c1[C@H](NC[C@@H]1CNC(=O)C1)CC2` (single isomer, unassigned) [Compound A-138], for which the EC50 is at most 10 nM.
In the case of `COc1nc(-c2cccc(-c3cccc(NC(=O)c4nn(C)c(=O)n(C)c4=O)c3Cl)c2Cl)cc2c1[C@H](N1CC3(CN(C(C)=O)C3)C1)CC2` (single isomer, unassigned) [Compound A-71], the EC50 was at most 10 nM.
As to `COc1nc(-c2cccc(-c3cccc(NC(=O)c4cn(C)c(=O)n(C)c4=O)c3C)c2Cl)cc2c1[C@@H](NC[C@@H]1CCC(=O)N1)C(C)(C)C2` (single isomer, unassigned) [Compound A-123], the EC50 was over 5000 nM.
Compound `COc1nc(-c2cccc(-c3cccc(NC(=O)c4cn(C)c(=O)n(C)c4=O)c3Cl)c2C#N)cc2c1[C@@H](NC[C@@H]1CCC(=O)N1)CC2` [Compound A-50] had an EC50 of 10 to 100 nM.
Compound `COc1nc(-c2cccc(-c3cccc(NC(=O)c4cn(C)c(=O)n(C)c4=O)c3Cl)c2Cl)cc2c1C(N1CC3(CNC(=O)C3)C1)CC2` [Compound D-14] gave an EC50 of at most 10 nM.

The experiment is the same for the next values; noted with them: co-culture 6 hrs at 37° C., NFAT-mediated luciferase activity.
Take `COc1nc(-c2ccc(F)c(-c3cccc(NC(=O)c4cn(C)c(=O)n(C)c4=O)c3C)c2F)cc2c1[C@H](N1CC(O)C1)CC2` [Compound A-82]: the EC50 was in the range of 10 to 100 nM.
